Results on four compounds are retold here after US20220251218A1, “PHARMACEUTICAL COMBINATION AND METHOD FOR OVERCOMING IMMUNE SUPPRESSION OR STIMULATING IMMUNE RESPONSE AGAINST CANCER” (GNT BIOTECH & MEDICALS CORPORATION, priority 2021, published 2022).

One series has as its system CT26 tumor. The note with it: for ORR (%): 3 days after end of treatment; for Relapse (recurrence): tumor growth at least 5 fold in mice with CR or PR; for CR / PD / PR: number of mice. As to the method:
Anti-Colorectal Cancer Activity in Animal Models. Animal study was approved and overseen by The Taipei Medical University Institutional Animal Care and Use Committee (TMU IACUC, NO: LAC-2020-0103, LAC-2019-0644). Six- to eight-week-old male Balb/c mice (National Laboratory Animal Center, Taiwan) were used for all animal experiments. CT26 cell line was purchased from ATCC. CT26 tumor cell lines were grown in RPMI-1640 supplemented with 10% (vol/vol) FBS at 37° C., 5% CO2. Tumors were established by s.c. injection of 1×10^6 CT26 cells with Matrigel (354248, Corning®) into the left flank of mice, and growth determined by measuring two perpendicular diameters. Tumors were allowed to grow for 8-12 days (tumor size about 110-250 mm^3) before randomization and treatment. Animals were euthanized when tumors reached more than 3000 mm^3 in volume. An anti-IgG antibody (BE0089, Lot #716719J3, Bio X Cell), anti-PD-1 antibody (BE0146, Lot #717918D1, Lot #735019J3, Lot #780120J3, Lot #73501901, Bio X Cell), anti-PD-L1 antibody (BE0101, Lot #720619F1, Bio X Cell) and anti-CTLA-4 antibody (BE0164, Lot #702418A2B, Bio X Cell) were administered i.p. at 2.5 mg/kg twice a week for three weeks. All antibodies were diluted to appropriate concentrations in 100 μL of sterile PBS (pH 7.4, Invitrogen Life Technologies). Axitinib (HY-10065, 30 mg/kg, po daily, MedChemExpress USA), Lenvatinib (HY-10981, 10 mg/kg, po daily, MedChemExpress USA), Olaparib (HY-10162, 50 mg/kg, po daily, MedChemExpress USA), Ibrutinib (HY-10997, 6 mg/kg, po daily, MedChemExpress USA), Cabozantinib (HY-13016, 30 mg/kg, po daily, MedChemExpress USA), Regorafenib (HY-1031, 30 mg/kg, po daily, MedChemExpress USA), RMC-4550 (HY-116009, 30 mg/kg, po daily, MedChemExpress USA), Sitravatinib (HY-16961, 20 mg/kg, po daily, MedChemExpress USA), Entinostat (HY-12163, 20 mg/kg, po q2d, MedChemExpress USA), Vorinostat (HY-10221, 150 mg/kg, po daily, MedChemExpress USA), Chidamide-k30 or Chidamide-HCl salt (50 mg/kg, po daily, produced from GNTbm, Taipei, Taiwan), Celecoxib (50 mg/kg, po daily, capsule/Celebrex®, Pfizer Pharmaceuticals LLC) were given for 16 days. Axitinib, Lenvatinib, Olaparib, Ibrutinib, Cabozantinib, Regorafenib, Entinostat, Vorinostat, RMC-4550, Sitravatinib and Celecoxib were dissolved in DMSO and diluted in PBS before administration. Chidamide-k30 and Chidamide-HCl salt were dissolved in water. Animals were euthanized when tumors reached more than 3000 mm^3 in volume. The anti-cancer activity was measured from the start of the treatment until the tumor volume reached 3,000 mm^3. Tumor volume was calculated as length×width^2×0.5. In this study, we defined Complete Response (CR, <0.5 time tumor growth in the tumor bearing mice at three days after the end of treatment); Partial Response (PR, tumor size ≥0.5 time tumor growth, but <1 times tumor growth in the tumor bearing mice at three days after the end of treatment); Stable Disease (SD, tumor size ≥1 time tumor growth, but <5 times tumor growth in the tumor bearing mice at three days after the end of treatment); Progressive Disease (PD, tumor size ≥5 times tumor growth in tumor bearing mice at three days after the end of treatment) for the evaluation of treatment efficacy. The recurrence was defined as when having tumor growth at least 5 fold in mice with CR or PR response after first tumor assessment.
Survival Rate in Animal Models. After tumor assessment the tumor volume of the mice was measured once every three or four days (twice/week). The tumor-bearing mice were regarded as dead when the tumor volume reached 3,000 mm^3. All treatment groups were recorded and analyzed.

A further series deals with CT26 cells. Briefly: Tumor rechallenge with CT26 cells in mice with PR/CR response (immunity). It is filed as in vivo, Balb/c mice. As to conditions: for Immunity (rechallenge): mice resistant to CT26 re-challenge. As to the method: Tumor Rechallenges in Animal Models. All mice with PR/CR response after treatment were rechallenged with CT26 cells on the contralateral side (please see FIG. 6(F)). The rechallenge with CT26 was performed on day 34±2, which was 7 days […] after first tumor assessment (day 27±2), with injection of 5×10^6 CT26 cells per mouse. After rechallenge with CT26 cells, tumors were allowed to grow for another 7 days (day 41±2) to determine the baseline as 1 fold. After further 10 days (day 51±2), the tumor growth was evaluated for the rechallenge. If two of the following criteria are met, the response will be considered as rechallenge-induced recurrence/relapse: first, the tumor size over 2 folds when compared to that of baseline on day 41±2; second, the tumor volume on day 51±2 was over 300 mm^3. Relapse happens when immunity is not sufficiently activated. If the tumor growth is inhibited, it means the immunity is activated.
We were interested in researching more powerful regimens to regulate the TME for boosting the immune response rate. First, we were to evaluate the Lenvatinib and Lenvatinib combined with anti-PD-1 Ab in CT26-bearing mice model. […] CT26 tumor-bearing mice were euthanized when tumor volume reached 3000 mm^3 after tumor implantation. […] Next, we were interested to evaluate immunity stimulated by different treatments in a rechallenge experiment as outlined in FIG. 6(F). The mice with CR or PR went into a wash-out stage of 7 days (until day 34±2) without any further treatment. Then rechallenge was performed with the same kind of cancer cells (CT26; 5×10^6) inoculated on the opposite flank for about another 7 days (day 41±2) and then the tumor volume would be determined as baseline (1 fold). The rechallenge tumor was allowed to grow for 10 days, and then assessed to evaluate the tumor growth (day 51±2). The immunity was defined as negative, when it met two conditions: the tumor volume was over 300 mm^3, or the tumor size was over 2 fold when compared to baseline. […] If the immune memory was not induced or not fully activated, resulting in the growth of tumors inoculated during the rechallenge (tumor recurrence), then the immunity would be defined as negative. […] The rechallenge experiment was used to re-confirm whether the regimens have stimulated the immune system's ability to activate immune memory directly or indirectly.

[1] abbreviates: FIG. 9, initial tumor volume 251 mm^3.

SMILES strings stand for the structures. Where “and” joins values, the source holds several entries; their conditions need not be identical. Identical values can stand only once. Like-named read-outs stand apart in the source and are kept apart here.

In the case of `CNC(=O)c1ccccc1Sc1ccc2c(/C=C/c3ccccn3)n[nH]c2c1` [Axitinib], in the series on CT26 tumor (FIG. 9), the “Survival Rate (%)” value was found to be 38%, the “Relapse (recurrence)” value worked out at 0%, the CR amounted to 3 and the PD is 4. Further, the PR with CT26 tumor (FIG. 9) turned out to be 0. For the same compound, in the series with CT26 tumor (setting [1]), the “ORR (%)” value is 37.5% and 38%.
In the case of `COc1cc2nccc(Oc3ccc(NC(=O)C4(C(=O)Nc5ccc(F)cc5)CC4)cc3)c2cc1OC` [Cabozantinib], the “Immunity (rechallenge)” value in the series on CT26 cells (FIG. 9) came out at 100%. In the series with CT26 tumor (FIG. 9), the “Survival Rate (%)” value is 14%, the “Relapse (recurrence)” value is 67%, the CR worked out at 3 and the PD stood at 2. In addition, the PR with CT26 tumor (FIG. 9) worked out at 0. Besides, in the series with CT26 tumor (setting [1]), the “ORR (%)” value turned out to be 43%.
As for `COc1cc2nccc(Oc3ccc(NC(=O)NC4CC4)c(Cl)c3)c2cc1C(N)=O` [Lenvatinib], in the series with CT26 cells (FIG. 6(G), mice that achieved CR/PR), the “tumor recurrence after the rechallenge” value is on record as 33%. In addition, in the series on CT26 cells (FIG. 6, overall immune memory), the “Immunity (rechallenge)” value turned out to be 67%. In the series on CT26 tumor (FIG. 6), the “Survival Rate (%)” value was determined as 10%, the “Relapse (recurrence)” value is given as 67%, the CR stood at 1 and the PD came to 2. Besides, the PR with CT26 tumor (FIG. 6) is 2. Further, in the series on CT26 tumor (FIG. 6, initial tumor volume 190 mm^3), the “ORR (%)” value is 30%. Further, in the series with CT26 tumor (FIG. 9), the “Survival Rate (%)” value is 0%, the “Relapse (recurrence)” value came to 100%, the CR is reported as 0 and the PD stood at 2. Besides, the PR in the series with CT26 tumor (FIG. 9) is given as 1. In the series with CT26 tumor (setting [1]), the “ORR (%)” value is 12.5% and 13%. Moreover, the body weight entry with CT26 tumor (mouse, in vivo) is listed as “mildly reduced”.
For `CNC(=O)c1cc(Oc2ccc(NC(=O)Nc3ccc(Cl)c(C(F)(F)F)c3)c(F)c2)ccn1` [Regorafenib], the “Immunity (rechallenge)” value in the series with CT26 cells (FIG. 9) turned out to be 50%. In addition, in the series on CT26 tumor (FIG. 9), the “Survival Rate (%)” value is listed as 13%, the “Relapse (recurrence)” value is listed as 50%, the CR is 2 and the PD amounted to 2. Further, the PR in the series with CT26 tumor (FIG. 9) was determined as 0. In addition, the “ORR (%)” value in the series on CT26 tumor (setting [1]) stood at 25%.
